Test results published in article PMC7818505 (Journal of Clinical Pharmacology, 2020).

How the values were obtained:
CYP2C9 = CYP2C9 (Homo sapiens, UniProt P11712); conditions: background statement; cited from earlier work
CYP1A2 messenger RNA = assay: In vitro CYP induction assay, messenger RNA in cryopreserved human hepatocytes; assay type: in vitro ADME; conditions: 3 donors
CYP3A4 [1] = assay: Phase 1 clinical DDI study, midazolam probe with or without relacorilant; assay type: in vivo, human
CYP3A4 [2] = target: CYP3A4 (Homo sapiens, UniProt P08684); assay: biochemical
CYP2B6 messenger RNA = assay: In vitro CYP induction assay, messenger RNA in cryopreserved human hepatocytes; assay type: in vitro ADME; conditions: 3 donors
progesterone receptor = conditions: background statement; cited from earlier work
CYP2C8 = target: T1, CYP2C8 (Homo sapiens, UniProt P10632); assay: Phase 1 clinical DDI study, pioglitazone probe with or without relacorilant; assay type: in vivo
T1 sequence (P10632 1-490): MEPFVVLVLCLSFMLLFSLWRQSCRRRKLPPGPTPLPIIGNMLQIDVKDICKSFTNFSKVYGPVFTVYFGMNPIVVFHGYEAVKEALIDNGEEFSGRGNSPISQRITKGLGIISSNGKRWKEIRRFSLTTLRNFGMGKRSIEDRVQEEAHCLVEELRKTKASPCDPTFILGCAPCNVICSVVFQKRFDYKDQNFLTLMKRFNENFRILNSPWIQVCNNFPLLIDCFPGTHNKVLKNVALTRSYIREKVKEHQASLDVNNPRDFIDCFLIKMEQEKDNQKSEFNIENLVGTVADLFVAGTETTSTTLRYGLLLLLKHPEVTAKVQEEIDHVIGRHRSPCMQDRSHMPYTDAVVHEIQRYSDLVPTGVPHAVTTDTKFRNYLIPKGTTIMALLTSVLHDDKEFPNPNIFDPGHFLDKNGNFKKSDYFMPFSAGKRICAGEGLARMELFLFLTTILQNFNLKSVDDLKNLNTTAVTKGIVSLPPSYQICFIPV

[3] = both, human, plasma, po, 15 mg, probe pioglitazone
[4] = pioglitazone + relacorilant (day 15) compared to pioglitazone alone (day 2)
[5] = pioglitazone + relacorilant (day 15) vs pioglitazone alone (day 2)
[6] = both, human, plasma, po, 2.5 mg, probe midazolam

Chain of CYP3A4 (Homo sapiens, UniProt P08684) (P08684 whole entry): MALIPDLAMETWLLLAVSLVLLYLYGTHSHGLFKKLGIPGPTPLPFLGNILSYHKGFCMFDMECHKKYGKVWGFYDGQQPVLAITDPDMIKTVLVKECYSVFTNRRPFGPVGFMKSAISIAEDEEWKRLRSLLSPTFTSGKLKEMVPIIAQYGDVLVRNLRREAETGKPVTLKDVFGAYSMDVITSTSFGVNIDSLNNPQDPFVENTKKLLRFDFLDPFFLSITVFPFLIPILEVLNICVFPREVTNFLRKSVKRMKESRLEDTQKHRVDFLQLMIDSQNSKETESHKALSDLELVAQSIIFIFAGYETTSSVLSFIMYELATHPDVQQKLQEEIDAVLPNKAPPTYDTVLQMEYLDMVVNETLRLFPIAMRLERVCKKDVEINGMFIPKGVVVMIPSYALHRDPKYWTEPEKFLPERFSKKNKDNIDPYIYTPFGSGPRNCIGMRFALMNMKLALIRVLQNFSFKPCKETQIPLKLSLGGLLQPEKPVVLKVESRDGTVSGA
Chain of CYP2C9 (P11712 whole entry): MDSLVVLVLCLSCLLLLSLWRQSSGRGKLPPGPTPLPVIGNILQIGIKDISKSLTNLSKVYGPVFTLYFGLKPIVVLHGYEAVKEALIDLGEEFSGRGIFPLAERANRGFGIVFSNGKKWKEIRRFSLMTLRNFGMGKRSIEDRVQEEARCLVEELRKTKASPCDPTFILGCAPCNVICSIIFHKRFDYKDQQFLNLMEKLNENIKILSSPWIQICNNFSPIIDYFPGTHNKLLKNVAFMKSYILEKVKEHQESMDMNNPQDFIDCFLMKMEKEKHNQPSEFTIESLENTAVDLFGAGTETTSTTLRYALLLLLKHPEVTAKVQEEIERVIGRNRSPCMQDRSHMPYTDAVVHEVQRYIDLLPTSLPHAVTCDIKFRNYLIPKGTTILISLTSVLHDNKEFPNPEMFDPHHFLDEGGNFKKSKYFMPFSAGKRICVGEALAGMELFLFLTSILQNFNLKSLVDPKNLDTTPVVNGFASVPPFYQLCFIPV

CC#C[C@]1(O)CC[C@H]2[C@@H]3CCC4=CC(=O)CCC4=C3[C@@H](c3ccc(N(C)C)cc3)C[C@@]21C [mifepristone]
CYP2C9 inhibition in vivo (in words) (CYP2C9): inhibits both CYP2C8 and CYP2C9 in vivo

Cn1cc(S(=O)(=O)N2CCC3=Cc4c(cnn4-c4ccc(F)cc4)C[C@]3(C(=O)c3cc(C(F)(F)F)ccn3)C2)cn1 [Relacorilant, (R)‐(1‐(4‐fluorophenyl)‐6‐((1‐methyl‐1H‐pyrazol‐4‐yl)sulfonyl)‐4,4a,5,6,7,8‐hexahydro‐1H‐pyrazolo[3,4‐g]isoquinolin‐4a‐yl)(4‐(trifluoromethyl)pyridin‐2‐yl)methanone]
induction of CYP1A2 (in words) (CYP1A2 messenger RNA): dose‐responsive induction of CYP1A2 was observed in all donors
CYP3A inhibition in vivo (in words) (CYP3A4 [1]; healthy subjects, relacorilant 350 mg once daily, midazolam probe): strong CYP3A inhibitor
IC50 (CYP3A4 [2]): 1320 nM
induction of CYP2B6 (in words) (CYP2B6 messenger RNA): No induction of CYP2B6 was observed in any donor
affinity for the progesterone receptor (in words) (progesterone receptor): no affinity for the progesterone receptor

CCc1ccc(CCOc2ccc(CC3SC(=O)NC3=O)cc2)nc1 (centres unmarked) [Pioglitazone, pioglitazone]
AUC(0-inf) (CYP2C8; both, human, plasma, po, 15 mg): 5650 ng·h/mL
AUC(0-t) (CYP2C8; [3]): 5530 ng·h/mL
Cmax (CYP2C8; [3]): 525 ng/mL
Tmax (CYP2C8; [3]): 2 h
half-life (CYP2C8; [3]): 10.4 h
GLSM AUCinf lower with relacorilant than alone, pioglitazone (CYP2C8; [4]): ~25%
GLSM AUClast lower with relacorilant than alone, pioglitazone (CYP2C8; [4]): ~25%
GLSM Cmax lower with relacorilant than alone, pioglitazone (CYP2C8; [4]): approximately 22%
AUCinf GLSM Ratio (90%CI), pioglitazone (CYP2C8; [5]): 0.748 (0.681‐0.822)
AUClast GLSM Ratio (90%CI), pioglitazone (CYP2C8; [5]): 0.747 (0.681‐0.820)
Cmax GLSM Ratio (90%CI), pioglitazone (CYP2C8; [5]): 0.778 (0.697‐0.870)

Cc1ncc2n1-c1ccc(Cl)cc1C(c1ccccc1F)=NC2 [Midazolam, midazolam]
AUC(0-inf) (CYP3A4 [1]; both, human, plasma, po, 2.5 mg): 36.4 ng·h/mL
AUC(0-t) (CYP3A4 [1]; [6]): 34.2 ng·h/mL
Cmax (CYP3A4 [1]; [6]): 12.7 ng/mL
